The test system of assay [1] is GABA uptake in synaptosomes. The assay can be described thus: GABA uptake inhibition in synaptosomes (overall, i.e. neuronal and glial). It counts as biochemical. The settings on record: values marked * = Preliminary Data. How it is done: The inhibition of GABA Uptake was performed by the method described by Falch et. al, Drug Dev. Res., 1990,21, 169-188. By this method the overall, i.e. neuronal and glial, inhibition of GABA uptake is determined.

Assay [2] relates to isoniazide induced convulsions in mice. The assay can be described thus: Isoniazid antagonism (antagonism of isoniazide induced convulsions in mice). The assay is classed as in vivo, mice (male NMRI/BOM). The following applies: Mus musculus, sc, 30 min before 300 mg isoniazide s.c., protected = no convulsions within 60 min, log probit analysis. How it is done:
The test is a test for antagonism of isoniazide induced convulsions in mice.
The test substance is given s.c. to mice (male NMRI/BOM, body weight 20-25 g) and 30 min later 300 mg isoniazide is given s.c. Five mice are used per dose and a control group only receiving isoniazide is included. This dose of isoniazide induces intermittent tonic seizures.
The animals are placed individually in Macrolon type II cages and the time when convulsions first occur is recorded. The experiment is stopped after 90 min. The animals that have not had convulsions within 60 min. are recorded as + (protected). The results, i.e. the number of protected mice pr number of tested mice are stated in fractions as follows: 0/5, 1/5 . . . , 5/5.

Structures can show the parent of a compound that is named as a salt.

Turning to `N[C@@H]1CCCc2onc(O)c21` [Compound 6b, (-)-(R)-4-amino-3-hydroxy-4,5,6,7-tetrahydro-1,2-benzisoxazole, hydrochloride], in assay [1], the IC50 (commonly the concentration needed to halve the response being measured) was 120 µM.
As for `OCCNC1CCCc2onc(O)c21` (racemic) [Compound 9a, (R,S)-4-(2-Hydroxyethylamino)-3-hydroxy-4,5,6,7-tetrahydro-1,2-benzisoxazole, hydrobromide], inhibition in assay [1] was half-maximal at 180 µM (IC50). In addition, in assay [2], the ED50 – broadly, the dose at which the effect has come halfway, by size or by number of responders – was greater than 140 µmol/kg.
For `CNC1CCCc2onc(O)c21` (racemic) [Compound 8a, (R,S)-3-Hydroxy-4-methylamino-4,5,6,7-tetrahydro-1,2-benzisoxazole, hydrobromide] the same measures were 65 µM and greater than 320 µmol/kg.
Consider `CN(CCC=C1c2ccccc2CCc2ccccc21)C1CCCc2onc(O)c21` (racemic) [Compound 8k, (R,S)-4-[N-[3-(10,11 1-ihydrodibenzo[a,d]cyclohept-5-ylidene)propane-1-yl]methylamino]-3-hydroxy-4,5,6,7-tetrahydro-1,2-benzisoxazole, hydrobromide], for which it took a dose of 68 µmol/kg to reach the 50% effect level in assay [2] (ED50).
The compound `C=CCNC1CCCc2onc(O)c21` (racemic) [Compound 8f, (R,S)-4-(2-propen-1-ylamino)-3-hydroxy-4,5,6,7-tetrahydro-1,2-benzisoxazole, oxalate] yielded a half-inhibitory concentration (IC50) in assay [1] of 100 µM. The compound also registered an ED50 in assay [2] of 320 µmol/kg.
In the case of `Oc1noc2c1C(NCCC=C(c1ccccc1)c1ccccc1)CCC2` (racemic) [Compound 20b, (R,S)-3-Hydroxy-4-[N-(4,4-diphenyl-3-butenyl)amino]-4,5,6,7-tetrahydro-1,2-benzioxazole hydrochloride hydrate], inhibition in assay [1] was half-maximal at 0.14 µM (IC50).
`CNC1CCCc2on(COC(=O)C(C)(C)C)c(=O)c21` (racemic) [Compound 14b, (R,S)-4-methylamino-2-pivaloyloxym ethyl-4,5,6,7-tetrahydro-1,2-benz isoxazol-3-one, hemioxalate] had an IC50 in assay [1] greater than 300 µM. The same compound returned a 50% effective dose (ED50) in assay [2] of 220 µmol/kg.
`CN(C)C1CCCc2onc(O)c21` (racemic) [Compound 18a, (R,S)-4-Dimethylamino-3-hydroxy-4,5,6,7-tetrahydro-1,2-benzisoxazole, hydrobromide]: the midpoint of inhibition in assay [1], the IC50, lay at 280 µM.
`CNC1CCCc2onc(OCOC(=O)c3c(C)cc(C)cc3C)c21` (racemic) [Compound 31b, (R,S)-4-Methylamino-3-(2,4,6-trimethylbenzoyloxymethyloxy)-4,5,6,7-tetrahydro-1,2-benzisoxazole, hemioxalate] showed an IC50 in assay [1] of 300 µM. In assay [2], it took a dose of 55 µmol/kg to reach the 50% effect level (ED50).
`CN(CCCC(c1ccccc1)c1ccccc1)C1CCCc2onc(O)c21` (racemic) [Compound 11b, (R,S)-4-[-N -(4,4-Diphenylbut-1-yl)-N-methylamino]-3-hydroxy-4,5,6,7-tetrahydro-1,2-benzisoxazole, hydrobromide] returned a half-inhibitory concentration (IC50) in assay [1] of 0.41 µM. The same compound showed an ED50 in assay [2] of 640 µmol/kg.
In turn, `Oc1noc2c1C(NCc1ccccc1)CCC2` (racemic) [Compound 41a, (R,S)-3-Hydroxy-4-benzylamino-4,5,6,7-tetrahydro-1,2-benzisoxazole hydrobromide] registered an IC50 in assay [1] of 140 µM. Moreover, the 50% effective dose (ED50) in assay [2] was 77 µmol/kg.
`CN(CCCC(c1ccc(F)cc1)c1ccc(F)cc1)C1CCCc2onc(O)c21` (racemic) [Compound 11a, (R,S)-^4-[N-[4,4-Bis(4-fluorophenyl)butan-1-yi]-N-methylamino]-3-hydroxy-4,5,6,7-tetrahydro-1,2-benzisoxazole, hydrobromide]: in assay [1], the midpoint of inhibition, the IC50, lay at 0.73 µM. The 50% effect level in assay [2] (ED50) was put at a dose of 67 µmol/kg.
`CN(CCOC(c1ccccc1)c1ccccc1)C1CCCc2onc(O)c21` (racemic) [Compound 16c, (R,S)-4-[N-(diphenylmethyl-2-oxyethyl)-N-methylamino]-3-hydroxy-4,5,6,7-tetrahydro-1,2-benzisoxazole, hydrochloride] came in with a concentration for half-maximal inhibition (IC50) in assay [1] of 0.36 µM. The same compound came in with an ED50 in assay [2] of 160 µmol/kg.
For `Oc1noc2c1C(NCCC(c1ccccc1)c1ccccc1)CCC2` (racemic) [Compound 8i, (R,S)-4-(3,3-diphenylpropan-1-ylamind]-3-hydroxy-4,5,6,7-tetrahydro-1,2-benzisoxazole, hydrobromide], the half-maximal inhibitory concentration (IC50) in assay [1] was found to be 0.14 µM. In assay [2], this compound had an ED50 of 310 µmol/kg.
With `CN(CCOC(c1ccc(F)cc1)c1ccc(F)cc1)C1CCCc2onc(O)c21` (racemic) [Compound 16a, (R,S)-4-[N-[bis(4-fluorophenyl)methyl-2-oxyethyl]-N-methylamino]-3-hydroxy-4,5,6,7-tetrahydro-1,2-benzisoxazole, sodium salt], the IC50 in assay [1] came out at 4.5 µM. The 50% effective dose (ED50) in assay [2] is 55 µmol/kg.
For `CNC(=O)n1oc2c(c1=O)C(NC)CCC2` (racemic) [Compound 15b], half-maximal inhibition in assay [1] (IC50) required 80 µM. In addition, in assay [2], the median effective dose (ED50) is 72 µmol/kg.
Take `Oc1noc2c1C(NCCCN1c3ccccc3Sc3ccccc31)CCC2` (racemic) [Compound 8l, (R,S)-4-[N-3-(Phenothiazin-10-yl)propane-1-yl]amino]-3-hydroxy4,5,6,7-tetrahydro-1,2-benzisoxazole, hydrobromide]: in assay [2], the 50% effect level (ED50) was put at a dose of 71 µmol/kg.
In the case of `Oc1noc2c1C(NCCC=C1c3ccccc3CCc3ccccc31)CCC2` (racemic) [Compound 8j, (R,S)-4-[N-[3-(10,11-dihydrodibenzo[a,d]cyclohept-5-ylidene)propane-1-yl]amino]-3-hydroxy-4,5,6,7-tetrahydro-1,2-benzisoxazole, hydrobromide], in assay [1], the half-inhibitory concentration (IC50) amounted to 1.1 µM.
As for `Oc1noc2c1C(NCCCCc1ccccc1)CCC2` (racemic) [Compound 8h, (R,S)-4-(4-phenylbut-1-ylamino]-3-hydroxy-4,5,6,7-tetrahydro-1,2-benzisoxazole, hydrobromide], the IC50 in assay [1] worked out at 4.8 µM. The 50% effective dose (ED50) in assay [2] came to 150 µmol/kg.
The compound `CNC1CCCc2onc(OCOC(=O)c3ccccc3)c21` (racemic) [Compound 31a, (R,S)-3-Benzoyloxymethyloxy-4-methylamino-4,5,6,7-tetrahydro-1,2-benzisoxazole, hemioxalate] yielded an ED50 in assay [2] of 210 µmol/kg.
Consider `Oc1noc2c1C(NCC(c1ccccc1)c1ccccc1)CCC2` (racemic) [Compound 41b, (R,S)-3-Hydroxy-4-(2,2-diphenylethylamino)-4,5,6,7-tetrahydro-1,2-benzisoxazole hydrobromide], for which the IC50 in assay [1] worked out at 22 µM. For the same compound, the ED50 in assay [2] was greater than 190 µmol/kg.
For `CNC1CCCc2onc(OCOC(=O)C(C)(C)C)c21` (racemic) [Compound 14a, (R,S)-4-methylamino-3-pivaloyloxymethyloxy-4,5,6,7-tetrahydro-1,2-benzisoxazole, hemioxalate] the same measures were greater than 300 µM and 86 µmol/kg.
In the case of `Cc1ccccc1C(=CCCN(C)C1CCCc2onc(O)c21)c1ccccc1C` (racemic) [Compound 8o, (R,S)-4-[N-[1,1-Di-(2-tolyl)but-1-en-4-yl]methylamino]-3-hydroxy-4,5,6,7-tetrahydro-1,2-benzisoxazole], the 50% effective dose (ED50) in assay [2] came to 50 µmol/kg.
On to `CNC1CCCc2onc(O)c21` (single isomer, unassigned; (-)) [Compound 6d, (-)-3-hydroxy-4-methylamino-4,5,6,7-tetrahydro-1,2-benzisoxazole, hydrobromide], for which, in assay [1] (hydrobromide), the IC50 was greater than 300 µM.
Take `CNC1CCCc2onc(OCOC(=O)c3c(F)cccc3F)c21` (racemic) [Compound 31c, (R,S)-4-Methylamino-3-(2,6-difluorobenzoyloxymethyloxy)-4,5,6,7-tetrahydro-1,2-benzisoxazole, hemioxalate]: the ED50 in assay [2] was 210 µmol/kg.
Take `Cc1ccccc1C(CCCNC1CCCc2onc(O)c21)c1ccccc1C` (racemic) [Compound 8n, (R,S)-4-[N-[4,4-Di-(2-tolyl)butan-1-yl]amino]-3-hydroxy-4,5,6,7-tetrahydro-1,2-benzisoxazole, hydrobromide]: the median effective dose (ED50) in assay [2] stood at 44 µmol/kg.
Take `CN(C(=O)Oc1ccccc1)C1CCCc2onc(O)c21` (racemic) [Compound 28a, (R,S)-3-Hydroxy-N-methyl-N-(4-phenyloxycarbonyl)amino-4,5,6,7-tetrahydro-1,2-benzisoxazole]: in assay [2], the 50% effect level (ED50) was put at a dose of 200 µmol/kg.
Compound `Cc1ccsc1C(=CCCNC1CCCc2onc(O)c21)c1sccc1C` (racemic) [Compound 20c, (R,S)-3-Hydroxy-4-[N-(4,4-bis[3-methylthien-2-yl]-3-butenyl)amino]-4,5,6,7-tetrahydro-1,2-benzisoxazole hydrochloride] displayed an IC50 in assay [1] of 0.17 µM. In other words, the sub-micromolar range.
`N[C@H]1CCCc2onc(O)c21` [Compound 6a, (+)-4-amino-3-hydroxy-4,5,6,7-tetrahydro-1,2-benzisoxazole, hydrochloride]: in assay [1], the IC50 is greater than 300 µM.
In assay [2], `Cc1ccccc1C(=CCCNC1CCCc2onc(O)c21)c1ccccc1C` (racemic) [Compound 8p, (R,S) -4-[N-1,1-Di-(2-tolyl)but-1-en-4-yl]amino]-3-hydroxy-4,5,6,7-tetrahydro-1,2-benzisoxazole, hydrobromide] gave a median effective dose (ED50) of 30 µmol/kg.
Regarding `NC1CCCc2snc(O)c21` (racemic) [Compound 26a, (R,S)-4-Amino-3-hydroxy-4,5,6,7-tetrahydro-1,2-benzisothiazole, hydrobromide], the 50% inhibitory concentration (IC50) in assay [1] was greater than 300 µM.
With `Cc1ccccc1C(CCCN(C)C1CCCc2onc(O)c21)c1ccccc1C` (racemic) [Compound 8m, (R,S)-4-[N-[4,4-Di-(2-tolyl)butan-1-yl]-rmethylamino]-3-hydroxy-4,5,6,7-tetrahydro-1,2-benzisoxazole, hydrobromide], the ED50 in assay [2] stood at 27 µmol/kg.

The values are drawn from US6174909A, “4-aminotetrahydrobenzisoxazole or -isothiazole compounds” (H. Lundbeck A/S, priority 1995, dated 2001).
